Measurements as given in paper PMC8688955 (Frontiers in Pharmacology, 2021).
Where “and” joins values, the source holds several entries; their conditions need not be identical. Equal entries are not always repeated. Where two headings read alike, the source gives them in different places.

What was measured:
[1] = molecular target: T1, CI-AMPARs (Rattus norvegicus, UniProt P19491, Q607R); assay: Whole-cell patch-clamp of kainate-induced currents in isolated hippocampal CA1 pyramidal neurons; format: cell-based, Wistar rat; conditions: for CI-AMPARs % inhibition at 100 µM: 100 µM compound; for CI-AMPARs % inhibition at 100 µM / inhibition at 100 µM: currents induced by 100 µM kainate, mean ± SD, N = 5; for CI-AMPARs % inhibition at 100 µM / inhibition at 100 µM / IC50: −80 mV; for inhibition at 100 µM: read-out: CI-AMPARs % inhibition at 100 µM, 100 µM compound; for Activity drop in the presence of cyclothiazide: 50 µM kainate; for IC50: kainate-induced currents, Hill equation; for inhibition at 300 µM: 300 µM compound, read-out: percentage of inhibition at 300-µM concentration
T1 construct: activity against native calcium-permeable AMPA receptors (CP-AMPARs) and calcium-impermeable AMPA receptors (CI-AMPARs); endogenous in cells; host or cells: acutely isolated pyramidal neurons from the CA1 area of Wistar rat hippocampal slices
T1 sequence (P19491 22-883 Q607R): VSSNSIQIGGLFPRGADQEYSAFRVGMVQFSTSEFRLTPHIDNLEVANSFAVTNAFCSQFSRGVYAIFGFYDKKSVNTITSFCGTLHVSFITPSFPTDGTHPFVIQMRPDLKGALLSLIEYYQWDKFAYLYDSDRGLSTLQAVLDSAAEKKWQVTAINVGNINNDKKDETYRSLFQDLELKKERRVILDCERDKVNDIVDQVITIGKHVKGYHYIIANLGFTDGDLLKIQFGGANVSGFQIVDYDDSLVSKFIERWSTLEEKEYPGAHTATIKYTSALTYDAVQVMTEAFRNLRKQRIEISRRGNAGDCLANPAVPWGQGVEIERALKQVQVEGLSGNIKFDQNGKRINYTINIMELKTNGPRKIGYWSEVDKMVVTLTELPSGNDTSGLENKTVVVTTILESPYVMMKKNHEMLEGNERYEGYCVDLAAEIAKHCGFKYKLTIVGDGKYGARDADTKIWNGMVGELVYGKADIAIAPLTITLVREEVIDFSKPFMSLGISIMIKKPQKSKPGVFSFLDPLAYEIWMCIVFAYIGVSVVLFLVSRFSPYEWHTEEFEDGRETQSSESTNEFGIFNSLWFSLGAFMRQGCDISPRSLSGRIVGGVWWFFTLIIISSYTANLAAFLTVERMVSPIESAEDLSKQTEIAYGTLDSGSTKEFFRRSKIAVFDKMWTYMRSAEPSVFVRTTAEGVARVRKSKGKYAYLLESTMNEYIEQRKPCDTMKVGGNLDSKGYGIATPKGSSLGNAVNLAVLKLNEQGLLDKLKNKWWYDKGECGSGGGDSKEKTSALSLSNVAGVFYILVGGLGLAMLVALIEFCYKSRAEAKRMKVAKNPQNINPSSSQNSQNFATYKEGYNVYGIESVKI
Method: All experimental procedures were approved by the Animal Care and Use Committee of the I.M. Sechenov Institute of Evolutionary Physiology and Biochemistry of the Russian Academy of Sciences. Wistar rats (13–19 days old) were anesthetized with sevoflurane and then decapitated. Maximum effort was made to minimize the number of animals used. Brains were removed quickly and cooled to 2–4°C in an ice bath. […] The antagonism of CI-AMPARs was studied on pyramidal neurons from the CA1 area of the hippocampus.
Series resistance of about 20 MΩ was compensated by 70–80% and monitored during experiments. Currents were recorded using an EPC-8 amplifier (HEKA Electronics, Lambrecht, Germany), filtered at 5 kHz, sampled, and stored on a personal computer. Drugs were applied using the RSC-200 perfusion system (BioLogic Science Instruments, Claix, France) under computer control. The solution exchange time in the whole-cell mode was 50–60 ms. […] The pipette solution contained (in mM) CsF 100, CsCl 40, NaCl 5, CaCl2 0.5, EGTA 5, and HEPES 10 (pH was adjusted to 7.2 with CsOH). Experiments were performed at room temperature (22–24°C). […] Lamotrigine, topiramate, levetiracetam, felbamate, carbamazepine, tiagabin, vigabatrin, zonisamide, and gabapentin were purchased from Tocris Bioscience (Bristol, United Kingdom). Perampanel was from MedChemExpress (Stockholm, Sweden). Kinetics of transient processes of more than 20-ms duration was approximated by exponential functions. Experiments were performed at −80 mV holding voltage. All experimental data are presented as mean ± SD estimated from at least four experiments. Significance of the effects was tested with paired t test. Differences were considered significant at p < 0.05. 3D structures of compounds were calculated by the ZMM software (zmmsoft.ca).

[2] = system: CP-AMPARs; assay: Whole-cell patch-clamp of kainate-induced currents in isolated striatal giant interneurons; format: cell-based, Wistar rat; conditions: for CP-AMPARs % inhibition at 100 µM: 100 µM compound, currents induced by 100 µM kainate, mean ± SD, N = 5; for CP-AMPARs % inhibition at 100 µM / IC50: −80 mV; for IC50: read-out: IC50 CP-AMPARs, kainate-induced currents, Hill equation; for % block: IEM-1925, […], representative recording, Figure 3E; for % inhibition: […] IEM-1925
Method: All experimental procedures were approved by the Animal Care and Use Committee of the I.M. Sechenov Institute of Evolutionary Physiology and Biochemistry of the Russian Academy of Sciences. Wistar rats (13–19 days old) were anesthetized with sevoflurane and then decapitated. Maximum effort was made to minimize the number of animals used. Brains were removed quickly and cooled to 2–4°C in an ice bath. […] Single neurons were freed from slices by vibrodissociation ([Vorobjev, 1991]). The antagonism of CP-AMPARs was studied on striatal giant interneurons ([Bernard et al., 1997]; [Gotz et al., 1997]), which were identified by their shape and size. […] The antagonism of CI-AMPARs was studied on pyramidal neurons from the CA1 area of the hippocampus.
Series resistance of about 20 MΩ was compensated by 70–80% and monitored during experiments. Currents were recorded using an EPC-8 amplifier (HEKA Electronics, Lambrecht, Germany), filtered at 5 kHz, sampled, and stored on a personal computer. Drugs were applied using the RSC-200 perfusion system (BioLogic Science Instruments, Claix, France) under computer control. The solution exchange time in the whole-cell mode was 50–60 ms. The extracellular solution contained (in mM) NaCl 143, KCl 5, MgCl2 2.0, CaCl2 2.5, D-glucose 18, and HEPES 10 (pH was adjusted to 7.3 with HCl). The pipette solution contained (in mM) CsF 100, CsCl 40, NaCl 5, CaCl2 0.5, EGTA 5, and HEPES 10 (pH was adjusted to 7.2 with CsOH). Experiments were performed at room temperature (22–24°C). […] Lamotrigine, topiramate, levetiracetam, felbamate, carbamazepine, tiagabin, vigabatrin, zonisamide, and gabapentin were purchased from Tocris Bioscience (Bristol, United Kingdom). Perampanel was from MedChemExpress (Stockholm, Sweden). Kinetics of transient processes of more than 20-ms duration was approximated by exponential functions. Experiments were performed at −80 mV holding voltage. All experimental data are presented as mean ± SD estimated from at least four experiments. Significance of the effects was tested with paired t test. Differences were considered significant at p < 0.05. 3D structures of compounds were calculated by the ZMM software (zmmsoft.ca).

[3] = molecular target: T1, CI-AMPARs; set-up: method as in Barygin, 2016; conditions: ref Barygin, 2016; cited from earlier work
[4] = system: hGluA1-4 receptors; set-up: method as in Fukushima et al. (2020); conditions: ref Fukushima et al. (2020); cited from earlier work

With `NC(=O)OCC(COC(N)=O)c1ccccc1` [Felbamate] the “CI-AMPARs % inhibition at 100 µM” value [1] was 16 ± 4%, the inhibition at 100 µM [1] was ≤ 20% and the “CP-AMPARs % inhibition at 100 µM” value [2] was 10 ± 4%. The “CP-AMPARs % inhibition at 100 µM” value ([2]; listed as felbamate) was ≤ 20%.
With `CCCC(C)C1(CC)C(=O)NC(=O)NC1=O` (centres unmarked) [Pentobarbital] the “% block” value [1] was 56% and 42%, the “Activity drop at high (500 µM) kainate concentration” value [1] was “more active in the case of lower kainate concentration and Yes” and the “More active against CI-AMPARs” value [1] was “Yes”. The “effect on maximal response to kainate” value ([1]; 14 µM pentobarbital) was “decreased the maximal response to kainate”, the “Activity drop in the presence of cyclothiazide” value ([1]; 100 µM cyclothiazide) was “Yes” and the “Activity drop in the presence of cyclothiazide” value ([1]; 100 µM cyclothiazide, listed as pentobarbital) was “significantly attenuated in the presence of cyclothiazide”. The “decrease in the % of inhibition with the increase in agonist concentration” value ([1]; 50 vs 500 µM kainate) was 10–15%, the “% block” value ([1]; Pentobarbital, 50 μM, Kainate, 50 μM + cyclothiazide, 100 μM, representative recording, Figure 5E) was 27% and the “% block” value ([1]; Pentobarbital, 50 μM, Kainate, representative recording, Figure 5D) was 75%. For the same compound, the “Difference in the % of inhibition in coapplication and preapplication protocols” value ([1]; coapplication with kainate vs preapplication without kainate) was “more active in the coapplication protocol and Yes”, the “Trap in kainate 100 µM” value ([1]; double-pulse protocol, 30-s pause) was “Yes” and the IC50 [1] was 14 ± 3 µM. The pH-dependence ([1]; pH 7.4 vs 9.0) was “Yes”, the “% block” value ([1]; pentobarbital 30 μM, pH 7.4, Kainate, 100 μM, representative recording, Figure 10B) was 65% and the “% block” value ([1]; pentobarbital 30 μM, pH 9.0, Kainate, 100 μM, representative recording, Figure 10B) was 27%. The IC50 [2] was 80 ± 13 µM.
For `Cc1ccsc1C(=CCCN1CCCC(C(=O)O)C1)c1sccc1C` (centres unmarked) [Tiagabin], the “CI-AMPARs % inhibition at 100 µM” value [1] was 14 ± 2%, the inhibition at 100 µM [1] was ≤ 20% and the “CP-AMPARs % inhibition at 100 µM” value [2] was 10 ± 2%. For the same compound, the “CP-AMPARs % inhibition at 100 µM” value ([2]; listed as tiagabin) was ≤ 20%.
In the case of `CCC1(C)CC(=O)NC1=O` (centres unmarked) [ethosuximide], the inhibition at 300 µM [1] is reported as ≤ 20%.
For `CC1=NN=C(c2ccc(N)cc2)c2cc3c(cc2C1)OCO3` [GYKI-52466], the “effect on the slow phase of recovery from 50 µM phenytoin” value ([1]; 200 µM GYKI-52466) is listed as “remains unchanged” and the “displacement of slow negative allosteric antagonist perampanel” value [3] is listed as “able to displace”.
For `O=C1NC(=O)C(Cc2ccccc2)N1` (centres unmarked) [5-benzylhydantoin], the inhibition at 300 µM [1] was ≤ 20%.
With `O=C1CNC(=O)N1` [hydantoin] the inhibition at 300 µM [1] was ≤ 20%.
In the case of `CCCC(CCC)C(=O)O` [valproate], the “activity against hGluA1-4 receptors” value [4] is listed as “did not find significant activity”.
With `NCCCCCNC1(c2ccccc2)CCCCC1` [IEM-1925] the “More active against CI-AMPARs” value [1] was “dramatically more active against CP-AMPARs and No”, the IC50 [1] was 180 ± 30 µM and the “slow component of the response to testing kainate application in the trapping protocol” value ([2]; 6 µM IEM-1925, double-pulse protocol, n = 4) was 1,800 ± 400 ms. The “Activity drop at high (500 µM) kainate concentration” value ([2]; 50 vs 500 µM kainate, striatal CP-AMPARs) was “No”, the “% block” value ([2]; Ka 50 μM) was 49% and the “% block” value ([2]; Ka 500 μM) was 57%. For the same compound, the “% inhibition” value ([2]; 50 µM kainate) was 48 ± 3%, the “% inhibition” value ([2]; 500 µM kainate) was 55 ± 5% and the “Difference in the % of inhibition in coapplication and preapplication protocols” value ([2]; coapplication with kainate vs preapplication without kainate, striatal CP-AMPARs) was “inhibited only open channels and Yes”. The “Trap in kainate 100 µM” value ([2]; double-pulse protocol, 30-s pause, striatal giant interneuron) was “Yes”, the “Trap in kainate 500 µM” value ([2]; double-pulse protocol, striatal giant interneuron) was “Yes” and the IC50 [2] was 1.3 ± 0.4 µM.
In the case of `CCC1(c2ccccc2)C(=O)NC(=O)NC1=O` [phenobarbital], the “activity against hGluA1-4 receptors” value [4] is given as “did not find significant activity”.
Compound `NS(=O)(=O)c1cc2c(cc1Cl)NC(C1CC3C=CC1C3)NS2(=O)=O` (centres unmarked) [Cyclothiazide] has a fold potentiation ([1]; Kainate, 50 μM +/- cyclothiazide, 100 μM, representative recording, Figure 5A) of 7.4 fold and a fold induction at 100 µM ([1]; read-out: increase of the stationary current induced by 50 µM kainate, 100 µM cyclothiazide) of 8 ± 2.
For `COC[C@@H](NC(C)=O)C(=O)NCc1ccccc1` [lacosamide], the “activity against hGluA1-4 receptors” value [4] is listed as “did not find significant activity”.
For `NCC1(CC(=O)O)CCCCC1` [Gabapentin], the “CI-AMPARs % inhibition at 100 µM” value [1] is listed as 20 ± 6%, the inhibition at 100 µM [1] is listed as ≤ 20% and the “activity against hGluA1-4 receptors” value [4] is listed as “did not find significant activity”. For the same compound, the “CP-AMPARs % inhibition at 100 µM” value [2] was 12 ± 5% and the “CP-AMPARs % inhibition at 100 µM” value ([2]; listed as gabapentin) was ≤ 20%.
In the case of `C=CC(N)CCC(=O)O` (centres unmarked) [Vigabatrin], the “CI-AMPARs % inhibition at 100 µM” value [1] is reported as 8 ± 1%, the “CI-AMPARs % inhibition at 100 µM” value ([1]; listed as vigabatrin) is reported as ≤ 20% and the “CP-AMPARs % inhibition at 100 µM” value [2] is reported as 10 ± 3%. For the same compound, the “CP-AMPARs % inhibition at 100 µM” value ([2]; listed as vigabatrin) was ≤ 20%.
For `NC(=O)N1c2ccccc2C=Cc2ccccc21` [Carbamazepine], the “CI-AMPARs % inhibition at 100 µM” value [1] is listed as 11 ± 3%, the inhibition at 100 µM [1] is listed as ≤ 20% and the “activity against hGluA1-4 receptors” value [4] is listed as “did not find significant activity”. The “CP-AMPARs % inhibition at 100 µM” value [2] was 15 ± 4% and the “CP-AMPARs % inhibition at 100 µM” value ([2]; listed as carbamazepine) was ≤ 20%.
In the case of `CCC1(c2ccccc2)C(=O)NCNC1=O` [primidone], the inhibition at 300 µM [1] is reported as ≤ 20%.
With `NS(=O)(=O)Cc1noc2ccccc12` [Zonisamide] the “CI-AMPARs % inhibition at 100 µM” value [1] was 11 ± 2%, the inhibition at 100 µM [1] was ≤ 20% and the “CP-AMPARs % inhibition at 100 µM” value [2] was 11 ± 3%. The “CP-AMPARs % inhibition at 100 µM” value ([2]; listed as zonisamide) was ≤ 20%.
